Source: US6750220B2, “Amine salt of an integrin receptor antagonist” (Merck & Co., Inc., priority 2001, dated 2004)
Structures can show the parent of a compound that is named as a salt.

Test: solubility in water
Type: physicochemical
Conditions: compared with the parent zwitterionic compound of structural formula IV

O=C(O)CC(CCCCCCc1ccc2c(n1)NCCC2)c1cncnc1 (stereo not shown) [TRIS salt, tris(hydroxymethyl)aminomethyl (“TRIS”) salt of 3-(pyrimidin-5-yl)-9-(5,6,7,8-tetrahydro-[1,8]-naphthyridin-2-yl)-nonanoic acid]
solubility in water: greater solubility in water than the parent zwitterionic compound
